Substitutions are numbered along the chain they refer to.
Assays:
FLT3 D835H = molecular target: T1, FLT3 D835H (Homo sapiens, UniProt P36888, D835H); assay: DiscoverX KINOMEscan competition binding, FLT3 D835H
T1 construct: host or cells: E. coli BL21-derived host (T7 phage) or HEK-293
T1 sequence (P36888 27-993 D835H): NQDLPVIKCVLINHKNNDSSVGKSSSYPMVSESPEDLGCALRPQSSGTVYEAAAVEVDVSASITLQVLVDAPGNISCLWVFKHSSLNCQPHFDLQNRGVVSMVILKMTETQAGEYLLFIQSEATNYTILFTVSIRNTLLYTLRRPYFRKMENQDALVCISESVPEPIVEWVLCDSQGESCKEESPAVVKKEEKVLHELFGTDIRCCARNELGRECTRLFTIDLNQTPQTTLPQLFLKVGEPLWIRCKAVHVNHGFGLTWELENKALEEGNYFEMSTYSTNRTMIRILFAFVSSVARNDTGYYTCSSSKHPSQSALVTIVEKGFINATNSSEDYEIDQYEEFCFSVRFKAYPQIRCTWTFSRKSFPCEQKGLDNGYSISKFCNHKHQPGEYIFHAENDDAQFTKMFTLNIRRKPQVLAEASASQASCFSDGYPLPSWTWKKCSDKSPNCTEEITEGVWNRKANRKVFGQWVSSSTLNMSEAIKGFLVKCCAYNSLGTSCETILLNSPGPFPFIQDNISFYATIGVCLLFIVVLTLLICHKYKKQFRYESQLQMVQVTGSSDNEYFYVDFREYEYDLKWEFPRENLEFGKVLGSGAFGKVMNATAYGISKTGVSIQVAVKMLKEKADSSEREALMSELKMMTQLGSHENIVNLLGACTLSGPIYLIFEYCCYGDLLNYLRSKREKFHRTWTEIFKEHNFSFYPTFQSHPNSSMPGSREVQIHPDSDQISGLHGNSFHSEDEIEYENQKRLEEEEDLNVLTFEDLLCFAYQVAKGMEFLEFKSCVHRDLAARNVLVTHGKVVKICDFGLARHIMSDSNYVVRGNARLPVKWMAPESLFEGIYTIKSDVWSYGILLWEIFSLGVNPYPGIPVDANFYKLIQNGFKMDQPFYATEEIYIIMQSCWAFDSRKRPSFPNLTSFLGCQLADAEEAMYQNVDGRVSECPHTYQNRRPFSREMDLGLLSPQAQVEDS
Text: (§1) Kinase binding data were obtained for various exemplary compounds prepared according to Examples 1-24 using the DiscoverX KINOMVIEscan® active site-directed competition binding site-directed assay protocol described below. […] As a result, the data report thermodynamic interaction affinities (Kd values), rather than IC50 values that are dependent on ATP concentrations. The assay uses a DNA-tagged version of the protein kinase, and an immobilized ligand bound to a solid support. Compounds that directly or indirectly prevent kinase binding to the immobilized ligand reduce the amount of kinase captured on the solid support, which is detected using an ultra-sensitive qPCR method. Affinity constants reported from the assay have been reported to be independent of the immobilized ligand used that is coupled to the solid support (See supplemental information in Fabian, M. A. et. al., (2005) Nat. Biotechnol. 23, 329-336; Wodicka, L. M. et. al., (2010) Chem. Biol. 17, 1241-1249.)
(§2) Kinase-tagged T7 phage strains were prepared in an E. coli host derived from the BL21 strain. E. coli were grown to log-phase and infected with T7 phage and incubated with shaking at 32° C. until lysis. The lysates were centrifuged and filtered to remove cell debris. The remaining kinases were produced in HEK-293 cells and subsequently tagged with DNA for qPCR detection. Streptavidin-coated magnetic beads were treated with biotinylated small molecule ligands for 30 minutes at room temperature to generate affinity resins for kinase assays. The liganded beads were blocked with excess biotin and washed with blocking buffer (SeaBlock (Pierce), 1% BSA, 0.05% Tween 20, 1 mM DTT) to remove unbound ligand and to reduce non-specific binding. Binding reactions were assembled by combining kinases, liganded affinity beads, and test compounds in 1× binding buffer (20% SeaBlock, 0.17×PBS, 0.05% Tween 20, 6 mM DTT). Test compounds were prepared as 111× stocks in 100% DMSO. Kds were determined using an 11-point 3-fold compound dilution series with three DMSO control points. All compounds for Kd measurements are distributed by acoustic transfer (non-contact dispensing) in 100% DMSO. The compounds were then diluted directly into the assays such that the final concentration of DMSO was 0.9%. All reactions were performed in polypropylene 384-well plates. Each was a final volume of 0.02 mL. The assay plates were incubated at room temperature with shaking for 1 hour and the affinity beads were washed with wash buffer (1×PBS, 0.05% Tween 20). The beads were then re-suspended in elution buffer (1×PBS, 0.05% Tween 20, 0.5 μM nonbiotinylated affinity ligand) and incubated at room temperature with shaking for 30 minutes. The kinase concentration in the eluates was measured by qPCR.
(§3) Binding constants (Kds) were calculated with a standard dose-response curve using the Hill equation. The Hill Slope was set to −1. Curves were fitted using a non-linear least square fit with the Levenberg-Marquardt algorithm.

FLT3 R834Q = molecular target: T2, FLT3 R834Q (Homo sapiens, UniProt P36888, R834Q); assay: DiscoverX KINOMEscan competition binding, FLT3 R834Q
T2 construct: host or cells: E. coli BL21-derived host (T7 phage) or HEK-293
T2 sequence (P36888 27-993 R834Q): T1 sequence (P36888 27-993 D835H) with R808Q, H809D
Text: as §1, §2, §3

SMILES: FC(F)c1cn2c(-c3cccc(N[C@H]4CNC[C@@H]4F)n3)cnc2cn1 [Compound 16, 6-(6-(difluoromethyl)imidazo[1,2-a]pyrazin-3-yl)-N-((3S,4S)-4-fluoropyrrolidin-3-yl)pyridin-2-amine]
- Kd (FLT3 D835H): 0.2 nM
- Kd (FLT3 R834Q): 1.3 nM

SMILES: F[C@H]1CNC[C@@H]1Nc1cccc(-c2cnc3cnc(C4CC4)cn23)n1 [Compound 50, 6-(6-cyclopropylimidazo[1,2-a]pyrazin-3-yl)-N-((3S,4S)-4-fluoropyrrolidin-3-yl)pyridin-2-amine]
- Kd (FLT3 D835H): 0.032 nM
- Kd (FLT3 R834Q): 0.2 nM

SMILES: CC1(c2cn3c(-c4cccc(N[C@H]5CNCC56CC6)n4)cnc3cn2)CC1 [Compound 5, (R)-N-(6-(6-(1-methylcyclopropyl)imidazo[1,2-a]pyrazin-3-yl)pyridin-2-yl)-5-azaspiro[2.4]heptan-7-amine]
- Kd (FLT3 D835H): 0.063 nM
- Kd (FLT3 R834Q): 0.13 nM

SMILES: FC(F)c1cn2c(-c3cccc(N[C@H]4CNCC[C@@H]4F)n3)cnc2cn1 [Compound 25, 6-(6-(difluoromethyl)imidazo[1,2-a]pyrazin-3-yl)-N-((3S,4S)-4-fluoropiperidin-3-yl)pyridin-2-amine]
- Kd (FLT3 D835H): 0.18 nM
- Kd (FLT3 R834Q): 0.47 nM

SMILES: CC1(c2cn3c(-c4cccc(N[C@@H]5CCNC5)n4)cnc3cn2)CC1 [Compound 3, (R)-6-(6-(1-methylcyclopropyl)imidazo[1,2-a]pyrazin-3-yl)-N-(pyrrolidin-3-yl)pyridin-2-amine]
- Kd (FLT3 D835H): 0.059 nM
- Kd (FLT3 R834Q): 0.14 nM

SMILES: Cn1cc(-c2cn3c(-c4cccc(N[C@H]5CNC[C@@H]5F)n4)cnc3cn2)cn1 [Compound 52, N-((3S,4S)-4-fluoropyrrolidin-3-yl)-6-(6-(1-methyl-1H-pyrazol-4-yl)imidazo[1,2-a]pyrazin-3-yl)pyridin-2-amine]
- Kd (FLT3 D835H): 0.078 nM
- Kd (FLT3 R834Q): 0.19 nM

SMILES: CC(C)(O)c1cn2c(-c3cccc(N[C@H]4CNCC[C@@H]4F)n3)cnc2cn1 [Compound 31, 2-(3-(6-(((3S,4S)-4-fluoropiperidin-3-yl)amino)pyridin-2-yl)imidazo[1,2-a]pyrazin-6-yl)propan-2-ol]
- Kd (FLT3 D835H): 0.43 nM
- Kd (FLT3 R834Q): 2.2 nM

SMILES: CC(C)(O)c1cn2c(-c3cccc(N[C@@H]4CCCNC4)n3)cnc2cn1 [Compound 30, (R)-2-(3-(6-(piperidin-3-ylamino)pyridin-2-yl)imidazo[1,2-a]pyrazin-6-yl)propan-2-ol]
- Kd (FLT3 D835H): 1.2 nM
- Kd (FLT3 R834Q): 4.3 nM

SMILES: FC(F)(F)C1(c2cn3c(-c4cccc(N[C@@H]5CCNC5)n4)cnc3cn2)CC1 [Compound 10, (R)-N-(pyrrolidin-3-yl)-6-(6-(1-(trifluoromethyl)cyclopropyl)imidazo[1,2-a]pyrazin-3-yl)pyridin-2-amine]
- Kd (FLT3 D835H): 0.082 nM
- Kd (FLT3 R834Q): 0.81 nM

SMILES: CC1(c2cn3c(-c4cccc(N[C@H]5CNC[C@@H]5F)n4)cnc3cn2)CC1 [Compound 1, N-((3S,4S)-4-fluoropyrrolidin-3-yl)-6-(6-(1-methylcyclopropyl)imidazo[1,2-a]pyrazin-3-yl)pyridin-2-amine]
- Kd (FLT3 D835H): 0.066 nM
- Kd (FLT3 R834Q): 0.17 nM

SMILES: FC(F)(F)COc1cn2c(-c3cccc(N[C@@H]4CCNC4)n3)cnc2cn1 [Compound 38, (R)-N-(pyrrolidin-3-yl)-6-(6-(2,2,2-trifluoroethoxy)imidazo[1,2-a]pyrazin-3-yl)pyridin-2-amine]
- Kd (FLT3 D835H): 0.24 nM
- Kd (FLT3 R834Q): 1.2 nM

Source: patent publication US12612410B2 (CHILDREN'S HOSPITAL MEDICAL CENTER, priority 2020, dated 2026)
